Marks after values point to notes of the source that are not given here.
How the values were obtained:
[1] = test system: B16 mouse melanoma cells; experiment: Melanin synthesis in B16 melanoma cell assay, normalized to MTT cell viability; assay type: cell-based; conditions: 7 days, vs water vehicle control, 6 replicates
Description: The effects of 3,3′-thiodipropanoic acid and Kojic acid on melanin levels were determined by performing assays using B16 melanoma cells. These cells are known to constitutively produce melanin and are a commonly utilized and accepted model system for monitoring the inhibition of melanin synthesis.
The B16 mouse melanoma cells were seeded (ATCC, cat. #: CRL-6475) into 96-well tissue culture-treated plates (BD Falcon) and treated with test actives or controls in DMEM without phenol red (Mediatech; cat. #: 17-205-CV). The cells were examined for their ability to modulate pigment formation. […] Tests were performed in 6 replicates each. Following the treatment period, the level of pigment produced or melanin synthesized was quantified by reading the absorbance at 540 nm using a standard microplate reader (Tecan Group Ltd.).
After quantifying the amount of melanin, cell viability was determined using the MTT conversion method. […] After quantifying the amount of melanin pigment produced, the cells were exposed to MTT dye solution (1 mg/ml) for two to three hours. […] MTT dye uptake and conversion by viable cells were determined by measuring the extracted formazan at 570 nm using a microplate reader. Total pigmentation was calculated, normalized to cell viability values and expressed as the average percent change in melanin level relative to control of sextuplicates performed.

[2] = test system: MELANODERM™ (MEL-300-B) human skin model; experiment: Melanin levels in MELANODERM 3D human skin model; assay type: cell-based; conditions: vs water vehicle control
Description: The effect of 3,3′-thiodipropanoic acid or Thiodipropionic acid (TDPA) and Nicotinamide on melanin levels was investigated using a MELANODERM™ (MEL-300-B, MatTek Corp., Ashland, Mass.) human skin model. MELANODERM™ is a viable reconstituted three-dimensional human skin equivalent containing melanocytes derived from African-American donors. Tissues were maintained in culture medium EPI-100-NMM-113 at 37° C. as recommended by the manufacturer.
TDPA was dissolved in water to a final concentration of 1.0% (w/v). Nicotinamide was dissolved in the culture media to a final concentration of 0.1% (w/v). 25 μl of the TDPA solution was applied topically to the MELANODERM™ tissue while 0.1% Nicotinamide containing culture medium was added on days 1, 2, 4, 7, 9, and 11. Control tissues were treated with water vehicle only. The tissue was treated with both active lightening agents at “saturated concentration,” which is the highest concentration of treatment that is not toxic to the system.
On Day 14, tissues were collected and homogenized in a buffer containing 1% SDS, 50 mM EDTA, and 10 mM Tris, pH 6.8. To each homogenate, protease K (5 mg/ml) was added and incubated overnight at 45° C. Additional protease K was added and incubated for 4 hours at 45° C., followed by the addition of 0.5M sodium carbonate and 30% H2O2 and incubation at 80° C. for 30 minutes. The samples were cooled down to room temperature, and extracted with chloroform/methanol (2:1). After centrifugation at 10,000 g for 10 minutes, absorbance of the top phase was measured at 450 nm. Percent change in melanin levels in treated tissue was calculated relative to control.
The effect of TDPA and Soybean Trypsin Inhibitor (STI) on melanin levels was investigated using the MELANODERM™ human skin model according to the methods described in Example 1.

O=c1cc(CO)occ1O [Kojic Acid, Kojic acid (5-hydroxy-4-pyran-4-one-2-methyl), reference compound]
% CHANGE IN MELANIN ([1]; 0.01% final concentration): −47.6%*

NC(=O)c1cccnc1 [Nicotinamide, nicotinamide (3-pyridinecarboxamide), reference compound]
% CHANGE IN MELANIN ([2]; Example 1, 0.1% (w/v) in culture medium, Day 14, average of three tissues): −16%*

O=C(O)CCSCCC(=O)O [TDPA, 3,3′-thiodipropionic acid]
% CHANGE IN MELANIN ([1]; 0.1% final concentration): −27.4%*
% CHANGE IN MELANIN ([2]; Example 1, 1% (w/v) in water, 25 μl topical, Day 14, average of three tissues): −10%*
% CHANGE IN MELANIN ([2]; Example 3, 1%, methods of Example 1): −9.1%

B1: STI: Soybean Trypsin Inhibitor (STI), a known melanosome transfer inhibitor (protein, UniProt P01070 25-205, looked up)
Trypsin inhibitor A: DFVLDNEGNPLENGGTYYILSDITAFGGIRAAPTGNERCPLTVVQSRNELDKGIGTIISSPYRIRFIAEGHPLSLKFDSFAVIMLCVGIPTEWSVVEDLPEGPAVKIGENKDAMDGWFRLERVSDDEFNNYKLVFCPQQAEDDKCGDIGISIDHDDGTRRLVVSKNKPLVVQFQKLDKESL
% CHANGE IN MELANIN ([2]; Example 3, 0.1%, methods of Example 1): −8.9%

From patent publication US10117821B2, “Topical lightening composition and methods of use thereof” (Avon Products, Inc., priority 2013, dated 2018)
